In US9994890B1, “Methods of natural product drug discovery” (priority 2012, dated 2018):
Like-named read-outs stand apart in the source and are kept apart here. Starred links: 1 amine or outer side, 2 acyl side, 3 side chain; linkers in the order of their positions; H or OH if unused. Positions of bridges follow the written chain, without caps; N, C: chain ends. Non-standard residues stand in square brackets, D forms with d. Residues, ends and D or L forms follow the SMILES beside them. Chains are numbered I, II in the order given. Actinocin(9to1) = Cc1c2oc3c(C)ccc(C(=O)[*:1])c3nc-2c(C(=O)[*:2])c(N)c1=O; NMeV = CN[C@H](C(=O)O)C(C)C; Sar = CNCC(=O)O

Columns and labels:
[1] = tested on: mutants obtained by selection of the S. aureus strain RN4220; assay: MIC determination, mutants obtained by selection on antibiotic agar; format: cell-based, Staphylococcus aureus; details: for MIC of the mutant: Table 1, mutant resistant to the antibiotic of the same line; for MIC: Staphylococcus aureus, read-out: MIC of the mutant
Protocol: (§1) The majority of mutants were obtained by selection of the S. aureus strain RN4220 on agar plates in presence of an antibiotic. Briefly, the minimal inhibitory concentration (“MIC”) of the wildtype strain RN4220 was determined. For this purpose a liquid culture with an OD of 0.5 was added as a dilution of 1:100 in Mueller-Hinton broth to each well of a 96-well plate containing a dilution series of a certain antibiotic. The 96-well plate was incubated at 37° C. overnight. The lowest antibiotic concentration where no growth of bacteria could be determined is defined as the MIC value of this strain.
To select first-step mutants agar plates containing an antibiotic concentration of 0.5×-, 1×-, 2×-, 3×- and 5×MIC were prepared and approximately 1×10^8 cells were plated and incubated overnight. Colonies grown on the plate with the highest antibiotic concentration were subcultured in liquid MH-media containing the same concentration of antibiotic to avoid loss of resistance. This culture was used to prepare a 25% glycerol stock that is stored at −80° C. To test the stability of resistance each strain was subcultured again either in presence of an antibiotic or in media without any antibiotics. After that both cultures were plated on agar plates. In case of a stable mutation that leads to the resistance no difference in growth behavior of the liquid culture or the cultures plated on agar plates should be noticed. The MIC of the mutants was determined.
After the successful selection of eight first-step mutants the experiment was repeated in a same manner as described above to obtain mutants having a resistance to much higher concentration of antibiotic. With the exception of the actinomycin D mutant, additional mutants were obtained. Again the MIC-values for the new mutants were determined.

S. aureus strain RN4220 = assay: MIC determination, wildtype strain RN4220 (96-well dilution series, Mueller-Hinton broth); format: cell-based, Staphylococcus aureus; details: for MIC: Staphylococcus aureus, RN4220
Protocol: as §1

[2] = tested on: strains NRS106, NRS107, NRS128 and NRS129; assay: MIC determination, mutants purchased from NARSA; format: cell-based, Staphylococcus aureus; details: for MIC: Staphylococcus aureus, read-out: MIC of the mutant
Protocol: Four strains from NARSA (Network on Antimicrobial Resistance in Staphylococcus aureus) could be purchased. The strains NRS106, NRS107, NRS128 and NRS129 show resistances against the antibiotics gentamicin, mupirocin, erythromycin and chloramphenicol.
as §1

[3] = tested on: ten strains of Staphylococcus aureus, each resistant to a different, known, antibiotic; assay: Small scale experiment: panel of ten resistant strains in a microplate; format: cell-based; details: Example 1, FIG. 1
Protocol: In a small scale experiment, ten strains of Staphylococcus aureus, each resistant to a different, known, antibiotic, were generated. These strains were added to the wells of a microplate. […] Thus, it was determined that each strain of Staphylococcus aureus was resistant to at least one of ten known antibiotics (FIG. 1).
In this way, it was shown that linezolid was not part of the initial set of ten antibiotics. In other words, the panel of ten Staphylococcus aureus strains used allowed dereplication of the ten antibiotics with no need for analytical chemistry. This experiment establishes that the panel of ten strains can be scaled up to several thousand strains, which will be collectively resistant to as many known antibiotics, and screen sources of unknown compounds (e.g., microbial or eukaryotic cell spent media, cell and tissue extracts, combinatorial libraries, etc.). Using such a large scale screen allows identification of a source containing an antimicrobial activity that is unique from the thousands of known antibiotics, and thus a likely source of a novel antibiotic. Similarly, and using either microbial spent media or individual compounds from chemical libraries, a search can be performed for novel compounds with anticancer, anti-inflammatory, or other desired properties.

[4] = Table 1, 37° C. overnight, read-out: MIC of wildtype RN4220
[5] = Table 2, read-out: MIC of wilcitype RN4220

`CN(C)[C@@H]1C(=O)C(C(N)=O)=C(O)[C@@]2(O)C(=O)C3=C(O)c4c(O)cccc4[C@@](C)(O)[C@H]3C[C@@H]12` [Tetracyclin] was tested, and the “MIC of the mutant” value [1] was 3.9 µg/mL and the “MIC of wildtype RN4220” value (S. aureus strain RN4220; Table 1, 37° C. overnight) was 0.1 µg/mL.

`CC[C@H]1OC(=O)[C@H](C)[C@@H](O[C@H]2C[C@@](C)(OC)[C@@H](O)[C@H](C)O2)[C@H](C)[C@@H](O[C@@H]2O[C@H](C)C[C@H](N(C)C)[C@H]2O)[C@](C)(O)C[C@@H](C)C(=O)[C@H](C)[C@@H](O)[C@]1(C)O` [Erythromycin] gave an MIC [2] of 0.8 µg/mL.

Work on `CC1COc2c(N3CCN(C)CC3)c(F)cc3c(=O)c(C(=O)O)cn1c23` (centres unmarked) [Ofloxacin] yielded an MIC [1] of 1.5 µg/mL and an MIC (S. aureus strain RN4220; [4]) of 0.4 µg/mL.

Compound `CN[C@H](CC(C)C)C(=O)N[C@H]1C(=O)N[C@@H](CC(N)=O)C(=O)N[C@H]2C(=O)N[C@H]3C(=O)N[C@H](C(=O)N[C@H](C(=O)O)c4cc(O)cc(O)c4-c4cc3ccc4O)[C@H](O)c3ccc(c(Cl)c3)Oc3cc2cc(c3O[C@@H]2O[C@H](CO)[C@@H](O)[C@H](O)[C@H]2O[C@H]2C[C@](C)(N)[C@H](O)[C@H](C)O2)Oc2ccc(cc2Cl)[C@H]1O` [Vancomycin] has an MIC [1] of 2000 µg/mL and an MIC (S. aureus strain RN4220; [4]) of 1.56 µg/mL.

In the case of `CC1(C)S[C@@H]2[C@H](NC(=O)[C@H](N)c3ccccc3)C(=O)N2[C@H]1C(=O)O` [Ampicillin], the MIC [1] is reported as 300 µg/mL and the MIC (S. aureus strain RN4220; [4]) is reported as 0.2 µg/mL.

For `C/C(=C\C(=O)OCCCCCCCCC(=O)O)C[C@@H]1OC[C@H](C[C@@H]2O[C@H]2[C@@H](C)[C@H](C)O)[C@@H](O)[C@H]1O` [Mupirocin], the MIC [2] was 25 µg/mL and the MIC (S. aureus strain RN4220; [5]) was 500 µg/mL.

Compound `O=C(N[C@H](CO)[C@H](O)c1ccc([N+](=O)[O-])cc1)C(Cl)Cl` [Chloramphenicol] has an MIC [2] of 12.5 µg/mL and an MIC (S. aureus strain RN4220; [5]) of 62.5 µg/mL.

`Cc1c2oc3c(C)ccc(C(=O)N[C@@H]4C(=O)N[C@H](C(C)C)C(=O)N5CCC[C@H]5C(=O)N(C)CC(=O)N(C)[C@@H](C(C)C)C(=O)O[C@@H]4C)c3nc-2c(C(=O)N[C@@H]2C(=O)N[C@H](C(C)C)C(=O)N3CCC[C@H]3C(=O)N(C)CC(=O)N(C)[C@@H](C(C)C)C(=O)O[C@@H]2C)c(N)c1=O` [Actinomycin D] (I: T[dV]P[Sar][NMeV] / II: T[dV]P[Sar][NMeV]; ester I:1-I:C, II:1-II:C; linker I:N-II:N via Actinocin(9to1)) was tested, and the “MIC of the mutant” value [1] was 12.48 µg/mL and the “MIC of wildtype RN4220” value (S. aureus strain RN4220; Table 1, 37° C. overnight) was 1.56 µg/mL.

`CO[C@@H]1[C@@H](OC(N)=O)[C@@H](O)[C@H](Oc2ccc3c(O)c(NC(=O)c4ccc(O)c(CC=C(C)C)c4)c(=O)oc3c2C)OC1(C)C` [Novobiocin] showed an MIC [1] of 12.5 µg/mL and an MIC (S. aureus strain RN4220; [4]) of 0.05 µg/mL.

For `CC(=O)NC[C@H]1CN(c2ccc(N3CCOCC3)c(F)c2)C(=O)O1` [linezolid], the “microbial growth in the wells containing the ten resistant strains” value [3] was “suppressed the growth in all the wells”.

In the case of Gentamicin, the “MIC of the mutant” value ([2]; Table 2, NARSA strain named in the same line) is reported as 0.8 µg/mL and the “MIC of wilcitype RN4220” value (S. aureus strain RN4220; Table 2) is reported as 250 µg/mL.

`CO[C@H]1/C=C/O[C@@]2(C)Oc3c(C)c(O)c4c(O)c(c(/C=N/N5CCN(C)CC5)c(O)c4c3C2=O)NC(=O)/C(C)=C\C=C\[C@H](C)[C@H](O)[C@@H](C)[C@@H](O)[C@@H](C)[C@H](OC(C)=O)[C@@H]1C` [Rifampicin] showed an MIC [1] of 250 µg/mL and an MIC (S. aureus strain RN4220; [4]) of 0.008 µg/mL.

`[H]/N=C(/N)N[C@H]1[C@H](O)[C@@H](O)[C@H](O[C@@H]2O[C@@H](C)[C@](O)(C=O)[C@H]2O[C@@H]2O[C@@H](CO)[C@H](O)[C@@H](O)[C@@H]2NC)[C@@H](N/C(N)=N\[H])[C@@H]1O` [Streptomycin] showed an MIC (S. aureus strain RN4220; [4]) of 25 µg/mL.
